These results are taken from US11999727B2 (Tango Therapeutics, Inc., priority 2020, dated 2024).

Test [1] has as its target T1, PRMT5 (Homo sapiens, UniProt O14744).
T1 construct: purchased Viva (custom protein)
As to the kind of experiment: PRMT5 biochemical IC50 assay with no cofactor. The following applies: PRMT5, no cofactor; read-out: No Cofactor/rel IC50. The text has this: Table 1 indicates IC50 values (μM) against PRMT5 for exemplary compounds in the presence of SAM as cofactor, with no cofactor, and with MTA as cofactor, respectively (columns 4-6). […] Ki values can be calculated from the IC50 values as described in the Examples section. As detailed in the Examples section, for the assay performed in the presence of SAM, IC50=Ki×1.5 (Ki=IC50/1.5).

Test [2] relates to HAP1 MTAP-deleted cell line. As to the kind of experiment: Viability assay, MTAP-deleted cell line. It is filed as cell-based. To be noted: Homo sapiens, HAP1, viability assay, MTAP-deleted cell line; read-out: HAP1 MTAP deleted viability. The text has this:
Table 1 additionally indicates IC50 values in a viability assay for the MTAP-deleted cell line (column 10), indicating the effect of treatment with compound on cell survival.

Test [3] has as its target T1, PRMT5. As to the kind of experiment: PRMT5 biochemical IC50 assay with MTA as cofactor. To be noted: PRMT5, MTA as cofactor; read-out: MTA IC50.
Test [4] deals with HAP1 MTAP-intact cell line. Put plainly: SDMA in-cell western assay, HAP1 MTAP-intact. It is filed as cell-based. The following applies: Homo sapiens, HAP1, SDMA in-cell western, HAP1 MTAP-intact; read-out: MTAP HAP1 intact IC50. The gist of the method:
(§1)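 Readout: in-cell western detection of SDMA. Cells: HAP1 expressing endogenous MTAP and an MTAP-null HAP1 counterpart. Output: IC50.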

Test [5] concerns the target T1, PRMT5. As to the kind of experiment: PRMT5 biochemical IC50 assay with SAM as cofactor. The following applies: PRMT5, SAM as cofactor; read-out: SAM IC50.
Test [6] relates to HAP1 MTAP-deleted cell line. As to the kind of experiment: SDMA in-cell western assay, HAP1 MTAP-deleted. The following applies: for IC50: Homo sapiens, HAP1, SDMA in-cell western, HAP1 MTAP-deleted, read-out: HAP1 MTAP deleted IC50; for MTAP intact/deleted ratio: IC50 ratio HAP1 MTAP-intact / HAP1 MTAP-deleted, SDMA in-cell western. It is filed as cell-based. The gist of the method: as §1

T1 sequence (O14744 whole entry): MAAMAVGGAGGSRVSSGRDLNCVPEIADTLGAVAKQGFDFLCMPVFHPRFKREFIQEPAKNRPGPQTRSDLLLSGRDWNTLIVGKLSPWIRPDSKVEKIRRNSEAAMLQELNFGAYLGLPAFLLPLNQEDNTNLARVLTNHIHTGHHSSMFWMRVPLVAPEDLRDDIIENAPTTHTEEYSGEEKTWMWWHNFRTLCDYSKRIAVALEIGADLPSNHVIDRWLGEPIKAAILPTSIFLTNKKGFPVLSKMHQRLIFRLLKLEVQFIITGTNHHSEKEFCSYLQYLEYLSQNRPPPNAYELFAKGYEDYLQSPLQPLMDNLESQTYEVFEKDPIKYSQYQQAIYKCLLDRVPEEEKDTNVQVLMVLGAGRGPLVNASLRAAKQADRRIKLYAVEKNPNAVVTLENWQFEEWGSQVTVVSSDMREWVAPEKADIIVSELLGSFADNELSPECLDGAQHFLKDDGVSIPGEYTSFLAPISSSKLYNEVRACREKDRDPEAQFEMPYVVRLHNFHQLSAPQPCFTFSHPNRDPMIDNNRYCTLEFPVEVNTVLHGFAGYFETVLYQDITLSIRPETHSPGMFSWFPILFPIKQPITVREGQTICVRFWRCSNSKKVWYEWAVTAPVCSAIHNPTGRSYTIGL
T1 sequence (Q9BQA1 whole entry partner): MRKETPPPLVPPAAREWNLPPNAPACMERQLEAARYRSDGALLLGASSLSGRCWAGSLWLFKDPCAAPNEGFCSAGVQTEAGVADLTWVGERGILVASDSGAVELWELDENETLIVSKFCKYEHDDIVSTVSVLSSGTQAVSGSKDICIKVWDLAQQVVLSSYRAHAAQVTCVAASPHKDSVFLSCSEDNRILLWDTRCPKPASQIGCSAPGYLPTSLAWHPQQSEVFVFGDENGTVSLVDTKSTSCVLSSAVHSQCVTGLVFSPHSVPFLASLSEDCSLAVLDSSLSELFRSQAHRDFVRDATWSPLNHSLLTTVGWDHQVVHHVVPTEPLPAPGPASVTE

As for `Cc1ccc([C@@H]2CC[C@@H](C)CN2C(=O)C(=O)Nc2cncc(C(N)=O)c2)cc1C` (racemic) [Compound 180, rac-5-{2-[(2R,5S)-2-(3,4-Dimethylphenyl)-5-methylpiperidin-1-yl]-2-oxoacetamido}pyridine-3-carboxamide], the IC50 on PRMT5 [1] was 50 to 500 nM; in test [2], 1000 to 10000 nM; on PRMT5 [3], below 50 nM; in test [4], above 1000 nM; on PRMT5 [5], 50 to 500 nM; in test [6], 100 to 1000 nM. For the same compound, the MTAP intact/deleted ratio result in test [6] is recorded as “A (an IC50 ratio greater than or equal to 10 fold)”.
With `C[C@@H]1CC[C@@H](c2ccccc2)N(C(=O)C(=O)Nc2cncc(C(N)=O)c2)[C@H]1C` (racemic) [Compound 181, rac-5-[[2-[(2S,3R,6S)-2,3-dimethyl-6-phenyl-1-piperidyl]-2-oxo-acetyl]amino]pyridine-3-carboxamide], the IC50 was 50 to 500 nM on PRMT5 [1]; 1000 to 10000 nM in test [2]; below 50 nM on PRMT5 [3]; above 1000 nM in test [4]; 50 to 500 nM on PRMT5 [5]; 100 to 1000 nM in test [6]. In addition, the MTAP intact/deleted ratio result in test [6] is on record as “A (an IC50 ratio greater than or equal to 10 fold)”.
On to `NC(=O)c1cncc(NC(=O)C(=O)N2CC[C@@H](O)C[C@H]2c2ccccc2)c1` (racemic) [Compound 185, 5-(2-(4-hydroxy-2-phenylpiperidin-1-yl)-2-oxoacetamido)nicotinamide], for which the IC50 at PRMT5 [1] was above 500 nM; in test [2] it was above 10000 nM; at PRMT5 [3] it was 50 to 500 nM; in test [4], above 1000 nM; at PRMT5 [5] it was 50 to 500 nM; in test [6] it was above 1000 nM. Also, the MTAP intact/deleted ratio entry in test [6] is on record as “C (an IC50 ratio of less than 3 fold)”.
As to `Cc1cc(NC(=O)C(=O)N2C[C@@H](C)CC[C@@H]2c2cccc(O)c2)cnc1N` (racemic) [Compound 187, rac-N-(6-amino-5-methylpyridin-3-yl)-2-((2R,5S)-2-(3-hydroxyphenyl)-5-methylpiperidin-1-yl)-2-oxoacetamide], the IC50 at PRMT5 [1] was 50 to 500 nM; in test [2], 1000 to 10000 nM; at PRMT5 [3] it was below 50 nM; in test [4], 100 to 1000 nM; on PRMT5 [5], 50 to 500 nM; in test [6] it was below 100 nM. Further, in test [6], the MTAP intact/deleted ratio entry is given as “A (an IC50 ratio greater than or equal to 10 fold)”.
For `Cc1cc(NC(=O)C(=O)N2C[C@H](C)CC[C@H]2C2CCCC2)cnc1N` (racemic) [Compound 190, N-(6-amino-5-methyl-3-pyridyl)-2-[(2S,5R)-2-cyclopentyl-5-methyl-1-piperidyl]-2-oxo-acetamide], the IC50 at PRMT5 [1] was 50 to 500 nM; in test [2], 1000 to 10000 nM; at PRMT5 [3], below 50 nM; in test [4] it was above 1000 nM; at PRMT5 [5], 50 to 500 nM; in test [6], 100 to 1000 nM. The MTAP intact/deleted ratio entry in test [6] is listed as “B (an IC50 ratio greater than or equal to 3 fold but lower than 10 fold)”.
On to `C[C@@H]1CC[C@@H](c2cc(Cl)cc(Cl)c2)N(C(=O)C(=O)Nc2cncc(C(N)=O)c2)C1` (racemic) [Compound 206, rac-5-{2-[(2R,5S)-2-(3,5-Dichlorophenyl)-5-methylpiperidin-1-yl]-2-oxoacetamido}pyridine-3-carboxamide], for which the IC50 at PRMT5 [1] is 50 to 500 nM; in test [2], 1000 to 10000 nM; at PRMT5 [3], below 50 nM; in test [4] it was above 1000 nM; on PRMT5 [5] it was 50 to 500 nM; in test [6], 100 to 1000 nM. In addition, the MTAP intact/deleted ratio result in test [6] is on record as “A (an IC50 ratio greater than or equal to 10 fold)”.
Turning to `C[C@@H]1CC[C@@H](c2ccc(N3CCCC3)nc2)N(C(=O)C(=O)Nc2cncc(C(N)=O)c2)C1` (racemic) [Compound 207, rac-5-{2-[(2R,5S)-5-methyl-2-[6-(pyrrolidin-1-yl)pyridin-3-yl]piperidin-1-yl]-2-oxoacetamido}pyridine-3-carboxamide], the IC50 on PRMT5 [1] was 50 to 500 nM; in test [2], 1000 to 10000 nM; on PRMT5 [3] it was 50 to 500 nM; in test [4] it was above 1000 nM; on PRMT5 [5], above 500 nM; in test [6], 100 to 1000 nM. For the same compound, the MTAP intact/deleted ratio entry in test [6] is given as “A (an IC50 ratio greater than or equal to 10 fold)”.
As for `COc1ccc([C@@H]2CC[C@@H](C)CN2C(=O)C(=O)Nc2cncc(C(N)=O)c2)cc1F` (racemic) [Compound 208, rac-5-{2-[(2R,5S)-2-(3-Fluoro-4-methoxyphenyl)-5-methylpiperidin-1-yl]-2-oxoacetamido}pyridine-3-carboxamide], the IC50 at PRMT5 [1] was 50 to 500 nM; in test [2] it was 1000 to 10000 nM; at PRMT5 [3], below 50 nM; in test [4] it was above 1000 nM; at PRMT5 [5], 50 to 500 nM; in test [6] it was 100 to 1000 nM. The MTAP intact/deleted ratio entry in test [6] is on record as “A (an IC50 ratio greater than or equal to 10 fold)”.
For `CNc1ccc([C@@H]2CC[C@@H](C)CN2C(=O)C(=O)Nc2cncc(C(N)=O)c2)cn1` (racemic) [Compound 209, rac-5-{2-[(2R,5S)-5-Methyl-2-[6-(methylamino)pyridin-3-yl]piperidin-1-yl]-2-oxoacetamido}pyridine-3-carboxamide], the IC50 on PRMT5 [1] is 50 to 500 nM; in test [2], 1000 to 10000 nM; at PRMT5 [3] it was below 50 nM; in test [4], above 1000 nM; on PRMT5 [5], 50 to 500 nM; in test [6], below 100 nM. Also, in test [6], the MTAP intact/deleted ratio entry is “A (an IC50 ratio greater than or equal to 10 fold)”.
Take `C[C@@H]1CC[C@@H](c2ccc(Cl)cc2)N(C(=O)C(=O)Nc2cncc(C(N)=O)c2)C1` (racemic) [Compound 212, rac-5-[[2-[(2S,5R)-2-(4-chlorophenyl)-5-methyl-1-piperidyl]-2-oxo-acetyl]amino]pyridine-3-carboxamide]: the IC50 at PRMT5 [1] is 50 to 500 nM; in test [2], 1000 to 10000 nM; on PRMT5 [3], below 50 nM; in test [4], above 1000 nM; at PRMT5 [5], 50 to 500 nM; in test [6], below 100 nM. Moreover, the MTAP intact/deleted ratio result in test [6] is recorded as “A (an IC50 ratio greater than or equal to 10 fold)”.
Turning to `C[C@@H]1CC[C@@H](c2ccc(CN3CCOCC3)cc2)N(C(=O)C(=O)Nc2cncc(C(N)=O)c2)C1` (racemic) [Compound 213], the IC50 at PRMT5 [1] is 50 to 500 nM; in test [2], above 10000 nM; on PRMT5 [3], below 50 nM; in test [4], above 1000 nM; at PRMT5 [5], 50 to 500 nM; in test [6], 100 to 1000 nM. The MTAP intact/deleted ratio entry in test [6] is on record as “A (an IC50 ratio greater than or equal to 10 fold)”.
Turning to `COc1cccc([C@@H]2CC[C@@H](C)CN2C(=O)C(=O)Nc2cncc(C(N)=O)c2)c1` (racemic) [Compound 214, rac-5-{2-[(2R,5S)-2-(3-Methoxyphenyl)-5-methylpiperidin-1-yl]-2-oxoacetamido}pyridine-3-carboxamide], the IC50 on PRMT5 [1] was 50 to 500 nM; in test [2], 1000 to 10000 nM; at PRMT5 [3], below 50 nM; in test [4], above 1000 nM; on PRMT5 [5], 50 to 500 nM; in test [6], below 100 nM.
Consider `Cc1cccc2cc([C@@H]3CC[C@@H](C)CN3C(=O)C(=O)Nc3cncc(C(N)=O)c3)cnc12` (racemic) [Compound 215, rac-5-{2-[(2R,5S)-5-Methyl-2-(8-methylquinolin-3-yl)piperidin-1-yl]-2-oxoacetamido}pyridine-3-carboxamide], for which the IC50 is above 500 nM at PRMT5 [1]; above 10000 nM in test [2]; 50 to 500 nM at PRMT5 [3]; above 1000 nM in test [4]; above 500 nM on PRMT5 [5]; above 1000 nM in test [6]. For the same compound, the MTAP intact/deleted ratio result in test [6] was “B (an IC50 ratio greater than or equal to 3 fold but lower than 10 fold)”.
As to `Cc1cnn(-c2ccc([C@@H]3CC[C@@H](C)CN3C(=O)C(=O)Nc3cncc(C(N)=O)c3)cc2)c1` (racemic) [Compound 218, rac-5-{2-[(2R,5S)-5-Methyl-2-[4-(4-methyl-11H-pyrazol-1-yl)phenyl]piperidin-1-yl]-2-oxoacetamido}pyridine-3-carboxamide], the IC50 was 50 to 500 nM on PRMT5 [1]; 1000 to 10000 nM in test [2]; below 50 nM on PRMT5 [3]; above 1000 nM in test [4]; 50 to 500 nM at PRMT5 [5]; below 100 nM in test [6]. The MTAP intact/deleted ratio result in test [6] was “A (an IC50 ratio greater than or equal to 10 fold)”.
With `C[C@@H]1CC[C@@H](c2ccc(C(N)=O)cc2)N(C(=O)C(=O)Nc2cncc(C(N)=O)c2)C1` (racemic) [Compound 220, rac-5-{2-[(2R,5S)-2-(4-Carbamoylphenyl)-5-methylpiperidin-1-yl]-2-oxoacetamido}pyridine-3-carboxamide], the IC50 on PRMT5 [1] was 50 to 500 nM; in test [2], above 10000 nM; on PRMT5 [3], below 50 nM; in test [4], above 1000 nM; on PRMT5 [5], 50 to 500 nM; in test [6], 100 to 1000 nM. Also, the MTAP intact/deleted ratio result in test [6] is “A (an IC50 ratio greater than or equal to 10 fold)”.
